Measurements taken from ChEMBL document CHEMBL3886334, “Fragment ligated inhibitors selective for the polo box domain of PLK1” (2015).
pIC50: −log10 of the molar value.

These compounds were tested against Serine/threonine-protein kinase PLK1 (Homo sapiens, UniProt P53350) (assay: Fluorescent Polarization Binding Assay: The buffer composition was 50 mM Tris, 200 mM NaCl, 2.0 mM DTT, and 0.005% Tween 20 (pH 8.0). Fragment ligated inhibitors and comparison peptides to be tested in the binding assay were dissolved in dimethyl sulfoxide (DMSO) to a concentration of 10 mM, compounds were utilized in a range of concentrations from 10 nM to 600 μM. The PLK1 PBD protein (residues …).
Sequence of Serine/threonine-protein kinase PLK1 (P53350 whole entry, the tested form may be a part): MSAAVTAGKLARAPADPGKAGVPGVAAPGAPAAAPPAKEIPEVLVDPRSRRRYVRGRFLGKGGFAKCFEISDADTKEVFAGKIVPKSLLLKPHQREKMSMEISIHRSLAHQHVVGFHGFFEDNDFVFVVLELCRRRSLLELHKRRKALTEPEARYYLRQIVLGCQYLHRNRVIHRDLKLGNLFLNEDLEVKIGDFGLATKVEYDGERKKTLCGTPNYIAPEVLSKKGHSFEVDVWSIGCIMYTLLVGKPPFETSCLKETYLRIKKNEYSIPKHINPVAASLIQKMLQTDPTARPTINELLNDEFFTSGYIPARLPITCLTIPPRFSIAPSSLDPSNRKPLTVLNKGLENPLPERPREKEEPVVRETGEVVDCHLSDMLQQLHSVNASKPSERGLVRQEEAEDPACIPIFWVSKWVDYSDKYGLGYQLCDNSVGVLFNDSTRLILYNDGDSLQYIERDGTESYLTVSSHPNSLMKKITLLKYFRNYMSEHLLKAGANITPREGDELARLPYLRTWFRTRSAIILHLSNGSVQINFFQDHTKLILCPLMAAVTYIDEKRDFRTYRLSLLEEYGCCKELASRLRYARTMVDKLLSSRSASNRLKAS
`CNC(=O)c1ccc(SC)cc1` was tested, and the pIC50 was 4.73.
Compound `CNC(=O)c1ccc2ncccc2c1` has a pIC50 of 3.40.
Work on `CCCOc1ccc(C(=O)NC)cc1` yielded a pIC50 of 4.53.
`CCCc1ccc(C(=O)NC)cc1` showed a pIC50 of 4.97.
With `CNC(=O)CN1C(=O)COc2ccc(C)cc21` the pIC50 was 3.46.
`CCCNc1ccc(C(=O)NC)cc1` showed a pIC50 of 4.78.
In the case of `CNC(=O)c1cc(-c2ccccc2)n(-c2ccccc2)c1C`, the pIC50 was 3.22.
Compound `CCc1ccc(C(=O)NC)cc1` has a pIC50 of 4.78.
`CCOc1ccc(C(=O)NC)cc1` showed a pIC50 of 4.19.
Compound `CNC(=O)c1ccc(NC)cc1` has a pIC50 of 4.51.
`CNC(=O)c1ccc(OC)cc1` showed a pIC50 of 3.90.
Work on `CNC(=O)c1ccc(OC)c2ccccc12` yielded a pIC50 of 4.00.
`CNC(=O)Cn1cc(-c2ccc(C)cc2)ncc1=O` gave a pIC50 of 3.60.
For `CNC(=O)c1cc(-c2cccc(OC)c2)n[nH]1`, the pIC50 was 3.42.
In the case of `CNC(=O)c1cc(OC)c2c(c1)OCCO2`, the pIC50 was 3.52.
In the case of `CCCCc1ccc(C(=O)NC)cc1`, the pIC50 was 5.07.
`CNC(=O)c1cccc2ccccc12` was tested, and the pIC50 was 3.98.
In the case of `CNC(=O)c1ccc(-c2noc(C)n2)cc1`, the pIC50 was 3.49.
For `CNC(=O)CSc1ncnc2sc(C)cc12`, the pIC50 was 3.32.
Work on `CNC(=O)c1cn(S(=O)(=O)c2ccccc2)c2ccccc12` yielded a pIC50 of 3.43.
Compound `CNC(=O)c1cc(-c2ccccc2)c(C(F)(F)F)s1` has a pIC50 of 3.30.
In the case of `CNC(=O)c1sc(C(F)(F)F)c(-c2ccccc2)c1N`, the pIC50 was less than 3.22.
